# Measured values reported in US20220002314A1 (priority 2018, published 2022).
# Like-named read-outs stand apart in the source and are kept apart here.
# Assays:
# [1] = biological target: Human α2δ-1 subunit of Cav2.2 calcium channel (Homo sapiens, UniProt P54289); test: biochemical; type: binding
# Human μ-opioid receptor = Human μ-opioid receptor (Homo sapiens, UniProt P35372); test: biochemical; type: binding
# Human μ-opioid receptor, sequence (P35372 whole entry): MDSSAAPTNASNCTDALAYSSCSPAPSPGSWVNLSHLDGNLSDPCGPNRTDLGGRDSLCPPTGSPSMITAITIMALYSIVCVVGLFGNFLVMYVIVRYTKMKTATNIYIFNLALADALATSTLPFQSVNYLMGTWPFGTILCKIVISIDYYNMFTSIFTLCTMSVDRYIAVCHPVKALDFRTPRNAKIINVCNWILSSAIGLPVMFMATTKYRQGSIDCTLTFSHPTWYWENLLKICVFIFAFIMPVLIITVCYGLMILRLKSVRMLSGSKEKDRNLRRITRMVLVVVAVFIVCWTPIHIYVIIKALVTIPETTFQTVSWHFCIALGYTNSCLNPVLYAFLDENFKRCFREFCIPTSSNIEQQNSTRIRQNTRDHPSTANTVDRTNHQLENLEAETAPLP
# Human α2δ-1 subunit of Cav2.2 calcium channel, sequence (P54289 25-1103): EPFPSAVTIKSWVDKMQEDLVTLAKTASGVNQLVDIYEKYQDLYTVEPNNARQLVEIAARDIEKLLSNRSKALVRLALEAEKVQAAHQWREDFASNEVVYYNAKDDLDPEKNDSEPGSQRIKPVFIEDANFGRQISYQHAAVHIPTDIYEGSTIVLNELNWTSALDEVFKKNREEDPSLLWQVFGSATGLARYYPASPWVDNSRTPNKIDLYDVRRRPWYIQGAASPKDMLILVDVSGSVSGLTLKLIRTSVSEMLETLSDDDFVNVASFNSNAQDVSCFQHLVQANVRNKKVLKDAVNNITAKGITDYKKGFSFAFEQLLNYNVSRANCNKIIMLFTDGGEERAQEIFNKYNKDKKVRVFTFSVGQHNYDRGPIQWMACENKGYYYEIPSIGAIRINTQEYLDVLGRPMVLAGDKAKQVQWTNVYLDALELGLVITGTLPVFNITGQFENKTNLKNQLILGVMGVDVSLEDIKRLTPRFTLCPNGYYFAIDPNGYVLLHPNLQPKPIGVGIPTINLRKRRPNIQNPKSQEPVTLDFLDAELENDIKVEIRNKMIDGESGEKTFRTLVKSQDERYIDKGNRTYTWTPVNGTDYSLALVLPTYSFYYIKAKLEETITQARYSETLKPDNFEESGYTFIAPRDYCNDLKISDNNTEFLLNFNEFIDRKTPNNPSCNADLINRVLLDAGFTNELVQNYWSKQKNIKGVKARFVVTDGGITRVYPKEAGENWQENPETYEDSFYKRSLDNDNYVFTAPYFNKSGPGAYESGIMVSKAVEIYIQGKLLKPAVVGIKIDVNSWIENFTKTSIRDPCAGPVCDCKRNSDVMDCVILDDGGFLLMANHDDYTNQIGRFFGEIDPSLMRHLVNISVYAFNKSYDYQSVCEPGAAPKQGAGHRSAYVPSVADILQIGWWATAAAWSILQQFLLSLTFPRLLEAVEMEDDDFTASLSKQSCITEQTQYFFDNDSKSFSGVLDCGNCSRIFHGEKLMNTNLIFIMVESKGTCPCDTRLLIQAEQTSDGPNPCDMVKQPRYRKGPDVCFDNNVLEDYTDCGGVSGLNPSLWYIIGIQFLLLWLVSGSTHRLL
SMILES,Ki [1],Ki (Human μ-opioid receptor),Ki ([1]; read-out: α2δ-1 binding),Ki (Human μ-opioid receptor; read-out: μ-binding)
"CCCC(c1nc2cc(CN3CCN(C)CC3)ccc2c(=O)n1C)N1C[C@@H](C)N[C@@H](C)C1 (stereo partly drawn) [Example 186, 2-(1-((3S,5R)-3,5-dimethylpiperazin-1-yl)butyl)-3-methyl-7-((4-methylpiperazin-1-yl)methyl)quinazolin-4(3H)-one]",< 500 nM,> 500 nM,–,–
"CCCC(c1nc2ccc(Br)c(Cl)c2c(=O)n1CC)N1C[C@@H](C)N[C@@H](C)C1 (stereo partly drawn) [Example 23, 6-bromo-5-chloro-2-(1-((3S,5R)-3,5-dimethylpiperazin-1-yl)butyl)-3-ethylquinazolin-4(3H)-one]",< 500 nM,> 500 nM,–,–
"CCC[C@H](c1nc2c(F)cc(Br)cc2c(=O)n1CC)N1CCNCC1 [Example 96, (R)-6-bromo-3-ethyl-8-fluoro-2-(1-(piperazin-1-yl)butyl)quinazolin-4(3H)-one]",< 500 nM,100 to 500 nM,–,–
"CCCC(c1nc2ccc(CN(C)CC(C)C)cc2c(=O)n1CC)N1C[C@@H](C)N[C@@H](C)C1 (stereo partly drawn) [Example 184, 2-(1-((3S,5R)-3,5-dimethylpiperazin-1-yl)butyl)-3-ethyl-6-((isobutyl(methyl)amino)methyl)quinazolin-4(3H)-one]",< 500 nM,> 500 nM,–,–
"CCCC(c1nc2cc(OC)ccc2c(=O)n1CC)N1C[C@@H](C)N[C@@H](C)C1 (stereo partly drawn) [Example 6, 2-(1-((3S,5R)-3,5-dimethylpiperazin-1-yl)butyl)-3-ethyl-7-methoxyquinazolin-4(3H)-one]",< 500 nM,> 500 nM,–,–
"CCCC(c1nc2cc(F)c(Br)cc2c(=O)n1CC)N1CCNCC1 (stereo not drawn) [Example 83, 6-bromo-3-ethyl-7-fluoro-2-(1-(piperazin-1-yl)butyl)quinazolin-4(3H)-one]",< 500 nM,100 to 500 nM,–,–
"CCCC(c1nc2cc(NCC)ccc2c(=O)n1CC)N1C[C@@H](C)N[C@@H](C)C1 (stereo partly drawn) [Example 25, 2-(1-((3S,5R)-3,5-dimethylpiperazin-1-yl)butyl)-3-ethyl-7-(ethylamino)quinazolin-4(3H)-one]",< 500 nM,> 500 nM,–,–
"CCC[C@@H](c1nc2ccc(N3C[C@H](C)OC4(CCNCC4)C3)cc2c(=O)n1CC)N1C[C@@H](C)N[C@@H](C)C1 [Example 152, 2-((S)-1-((3S,5R)-3,5-Dimethylpiperazin-1-yl)butyl)-3-ethyl-6-((S)-2-methyl-1-oxa-4,9-diazaspiro[5.5]undecan-4-yl)quinazolin-4(3H)-one]",–,–,500 to 5000 nM,> 500 nM
"CCC[C@H](c1nc2ccc(OC)cc2c(=O)n1CC)N1CCN[C@@H](C)C1 [Example 215, 3-ethyl-6-methoxy-2-((R)-1-((S)-3-methylpiperazin-1-yl)butyl)quinazolin-4(3H)-one]",< 500 nM,> 500 nM,–,–
